The series can be described thus: Water uptake on exposure to air (Karl Fisher water content). The class given is physicochemical. To be noted: recrystallized sodium salt 1(b), exposed to air at room temperature for 1 week; 2.9% before exposure; said to indicate fairly high hydroscopic nature.

SMILES strings stand for the structures. Structures can show the parent of a compound that is named as a salt.

With `COc1ccc(C2(C#N)CCC(C(=O)O)CC2)cc1OC1CCCC1` (stereo not drawn) [Example 1, cis-4-cyano-4-[3-(cyclopentyloxy)-4-methoxyphenyl]cyclohexane-1-carboxylic acid sodium salt], the “water content on Karl Fisher after exposure to air” value is 22.9%.

(Values after patent US20030013905A1, “Salts of cis-4-cyano-4[3(cyclopentyloxy)-4-methoxyphenyl]cyclohexane-1-carboxylic acid” (priority 2002, published 2003).)
